In ChEMBL document CHEMBL5226284, “Small Molecule Inhibitors Targeting Biosynthesis of Ceramide, the Central Hub of the Sphingolipid Network” (J Med Chem, 2021):

Key:
[1] = Mixed type inhibition of human recombinant glucocerebrosidase at pH 5.6
[2] = Mixed type inhibition of human recombinant glucocerebrosidase at pH 4.3
[3] = Mixed type inhibition of human recombinant glucocerebrosidase at pH 6.7
[4] = Inhibition of rat brain aSMase using HMU-PC as substrate incubated for 3 hrs by fluorescence based analysis; assay type: tissue-based
[5] = target: Sphingomyelin phosphodiesterase (Homo sapiens) (UniProt P17405); assay: Inhibition of recombinant human aSMase at 5 uM relative to control
[6] = target: Sphingomyelin phosphodiesterase (Homo sapiens, UniProt P17405); assay: Inhibition of recombinant human aSMase assessed as inhibition constant
[7] = target: T1, Sphingomyelin phosphodiesterase 2 (Rattus norvegicus, UniProt Q9ET64); assay: Inhibition of rat brain microsomes nSMase assessed as inhibition constant; parameters: species or system Microsome
T1 sequence (Q9ET64 whole entry): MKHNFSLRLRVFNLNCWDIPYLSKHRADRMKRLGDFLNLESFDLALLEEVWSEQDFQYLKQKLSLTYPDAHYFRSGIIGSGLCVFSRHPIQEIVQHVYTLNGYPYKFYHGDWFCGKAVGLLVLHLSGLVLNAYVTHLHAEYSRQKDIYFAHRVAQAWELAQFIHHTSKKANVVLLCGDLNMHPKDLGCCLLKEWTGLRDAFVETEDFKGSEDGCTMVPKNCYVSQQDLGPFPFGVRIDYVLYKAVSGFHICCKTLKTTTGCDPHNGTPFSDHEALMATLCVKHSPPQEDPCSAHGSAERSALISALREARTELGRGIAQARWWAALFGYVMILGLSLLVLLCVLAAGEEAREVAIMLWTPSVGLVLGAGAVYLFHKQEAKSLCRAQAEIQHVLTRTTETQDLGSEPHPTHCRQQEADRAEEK

[8] = target: Acetylcholinesterase (Homo sapiens, UniProt P22303); assay: Inhibition of AChe (unknown origin)
[9] = target: T1, Sphingomyelin phosphodiesterase 2; assay: Inhibition of rat brain nSMase; assay type: tissue-based
[10] = target: T2, Sphingolipid delta(4)-desaturase DES1 (Homo sapiens, UniProt O15121); assay: Noncompetitive inhibition of DES1 in human HGC-27 cell lysates assessed as inhibition constant; assay type: subcellular
T2 sequence (O15121 whole entry): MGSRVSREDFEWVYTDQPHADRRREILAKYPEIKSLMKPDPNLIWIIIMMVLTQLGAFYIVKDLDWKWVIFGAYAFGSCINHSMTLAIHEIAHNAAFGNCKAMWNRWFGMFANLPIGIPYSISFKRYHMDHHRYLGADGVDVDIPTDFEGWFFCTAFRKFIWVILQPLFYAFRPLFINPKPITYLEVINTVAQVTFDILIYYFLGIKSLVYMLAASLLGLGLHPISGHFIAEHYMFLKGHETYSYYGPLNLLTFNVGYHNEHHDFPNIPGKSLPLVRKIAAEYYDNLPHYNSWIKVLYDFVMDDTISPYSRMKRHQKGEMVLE

[11] = target: Sphingomyelinase C (Bacillus cereus) (UniProt P11889); assay: Inhibition of Bacillus cereus SMaseC at 100 uM relative to control
[12] = target: Ceramide synthase 2 (Mus musculus, UniProt Q924Z4); assay: Inhibition of mouse CerS2
[13] = target: T3, Ceramide synthase 2 (Homo sapiens, UniProt Q96G23); assay: Inhibition of human CerS2
T3 sequence (Q96G23 whole entry): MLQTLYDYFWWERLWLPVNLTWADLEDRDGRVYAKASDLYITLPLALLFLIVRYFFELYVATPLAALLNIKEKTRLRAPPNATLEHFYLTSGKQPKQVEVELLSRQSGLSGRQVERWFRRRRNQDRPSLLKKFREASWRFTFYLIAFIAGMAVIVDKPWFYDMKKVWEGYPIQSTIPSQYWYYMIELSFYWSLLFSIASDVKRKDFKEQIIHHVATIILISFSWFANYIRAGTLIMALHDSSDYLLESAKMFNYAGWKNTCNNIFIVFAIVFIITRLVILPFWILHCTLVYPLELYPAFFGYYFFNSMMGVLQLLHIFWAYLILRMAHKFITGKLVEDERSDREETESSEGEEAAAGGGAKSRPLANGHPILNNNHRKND

[14] = target: Ceramide synthase 6 (Homo sapiens, UniProt Q6ZMG9); assay: Inhibition of human CerS6
[15] = target: Ceramide synthase 4 (Homo sapiens, UniProt Q9HA82); assay: Inhibition of human CerS4
[16] = target: Ceramide synthase 5 (Mus musculus, UniProt Q9D6K9); assay: Inhibition of mouse CerS5
[17] = Inhibition of rat liver microsome Sphingosine N-acyltransferase assessed as inhibition of [3H]sphingosine to [3H]ceramide conversion incubated for 2 hrs; assay type: microsomes
[18] = Inhibition of Bacillus cereus nSMase
[19] = target: T4, Sphingolipid delta(4)-desaturase DES1 (Rattus norvegicus, UniProt Q5XIF5); assay: Inhibition of rat liver microsome DES1 incubated for 20 min in presence of NADH by liquid scintillation counter method; assay type: microsomes
T4 sequence (Q5XIF5 whole entry): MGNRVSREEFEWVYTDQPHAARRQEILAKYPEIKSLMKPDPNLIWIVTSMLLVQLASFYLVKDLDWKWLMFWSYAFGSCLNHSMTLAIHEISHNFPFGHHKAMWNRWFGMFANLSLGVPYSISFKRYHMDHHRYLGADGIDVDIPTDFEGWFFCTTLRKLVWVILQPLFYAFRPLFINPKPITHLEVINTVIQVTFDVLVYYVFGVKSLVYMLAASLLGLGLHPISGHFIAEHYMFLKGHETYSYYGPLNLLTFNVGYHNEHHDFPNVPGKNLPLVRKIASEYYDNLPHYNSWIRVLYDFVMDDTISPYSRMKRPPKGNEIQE

[20] = target: T4, Sphingolipid delta(4)-desaturase DES1; assay: Inhibition of rat liver microsome DES1 assessed as inhibition constant incubated for 20 mins in presence of NADH by liquid scintillation counter method; assay type: microsomes
[21] = target: T2, Sphingolipid delta(4)-desaturase DES1; assay: Inhibition of DES1 (unknown origin)
[22] = target: T2, Sphingolipid delta(4)-desaturase DES1; assay: Inhibition of DES1 in human HGC-27 cell lysates; assay type: subcellular
[23] = target: T2, Sphingolipid delta(4)-desaturase DES1; assay: Binding affinity to DES1 in human HGC-27 cell lysates assessed as inhibition constant; assay type: subcellular
[24] = target: T4, Sphingolipid delta(4)-desaturase DES1; assay: Inhibition of rat liver microsome DES1 using N-octanoylsphinganine as substrate incubated for 30 mins; assay type: microsomes
[25] = Inhibition of bovine brain microsomes nSMase; parameters: species or system Bos taurus, Microsome
[26] = Non-competitive inhibition of bovine brain microsomes nSMase assessed as inhibition constant; parameters: species or system Bos taurus, Microsome
[27] = Competitive inhibition of rat brain aSMase assessed as inhibition constant; assay type: tissue-based
[28] = target: T4, Sphingolipid delta(4)-desaturase DES1; assay: Inhibition of rat liver microsome DES1 incubated for 1 hr fluorescence based analysis; assay type: microsomes
[29] = target: T3, Ceramide synthase 2; assay: Inhibition of CerS2 in HPAC cells using DHSph as substrate; assay type: cell-based
[30] = target: T3, Ceramide synthase 2; assay: Competitive inhibition of CerS2 in HPAC cells using DHSph as substrate by LC/MS/MS analysis; assay type: cell-based
[31] = Inhibition of rat plasma secretory SMase; assay type: cell-free

Sequence of Sphingomyelin phosphodiesterase (P17405 whole entry): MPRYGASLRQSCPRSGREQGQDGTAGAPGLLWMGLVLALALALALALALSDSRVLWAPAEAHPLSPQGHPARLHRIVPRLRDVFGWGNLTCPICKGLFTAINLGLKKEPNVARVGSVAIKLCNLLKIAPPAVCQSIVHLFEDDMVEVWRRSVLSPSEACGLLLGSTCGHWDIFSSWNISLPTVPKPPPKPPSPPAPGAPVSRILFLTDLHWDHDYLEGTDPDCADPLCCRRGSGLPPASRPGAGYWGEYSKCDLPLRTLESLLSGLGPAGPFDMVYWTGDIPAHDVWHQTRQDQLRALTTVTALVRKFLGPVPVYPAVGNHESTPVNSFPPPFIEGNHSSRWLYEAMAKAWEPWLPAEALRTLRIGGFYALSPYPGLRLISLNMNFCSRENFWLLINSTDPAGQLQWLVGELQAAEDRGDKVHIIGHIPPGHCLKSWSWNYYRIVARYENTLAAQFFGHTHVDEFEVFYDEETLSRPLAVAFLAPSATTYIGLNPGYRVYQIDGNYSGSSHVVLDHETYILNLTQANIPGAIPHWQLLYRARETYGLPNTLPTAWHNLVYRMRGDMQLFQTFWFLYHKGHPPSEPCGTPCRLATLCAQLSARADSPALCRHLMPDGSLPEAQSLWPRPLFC
Sequence of Sphingomyelin phosphodiesterase (Homo sapiens) (P17405 whole entry): as above
Sequence of Ceramide synthase 5 (Q9D6K9 whole entry): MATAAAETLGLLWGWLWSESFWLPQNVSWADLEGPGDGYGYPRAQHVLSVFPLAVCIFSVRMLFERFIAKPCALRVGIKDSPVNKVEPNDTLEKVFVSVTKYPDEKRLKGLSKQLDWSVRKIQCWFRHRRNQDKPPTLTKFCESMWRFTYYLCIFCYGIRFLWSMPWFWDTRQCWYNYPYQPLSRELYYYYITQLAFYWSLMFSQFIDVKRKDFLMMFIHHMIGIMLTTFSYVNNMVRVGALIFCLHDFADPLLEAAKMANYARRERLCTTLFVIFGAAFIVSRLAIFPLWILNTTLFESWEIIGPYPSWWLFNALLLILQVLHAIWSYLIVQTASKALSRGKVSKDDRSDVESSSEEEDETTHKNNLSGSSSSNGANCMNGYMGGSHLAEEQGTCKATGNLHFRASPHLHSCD
Sequence of Ceramide synthase 2 (Mus musculus, UniProt Q924Z4) (Q924Z4 whole entry): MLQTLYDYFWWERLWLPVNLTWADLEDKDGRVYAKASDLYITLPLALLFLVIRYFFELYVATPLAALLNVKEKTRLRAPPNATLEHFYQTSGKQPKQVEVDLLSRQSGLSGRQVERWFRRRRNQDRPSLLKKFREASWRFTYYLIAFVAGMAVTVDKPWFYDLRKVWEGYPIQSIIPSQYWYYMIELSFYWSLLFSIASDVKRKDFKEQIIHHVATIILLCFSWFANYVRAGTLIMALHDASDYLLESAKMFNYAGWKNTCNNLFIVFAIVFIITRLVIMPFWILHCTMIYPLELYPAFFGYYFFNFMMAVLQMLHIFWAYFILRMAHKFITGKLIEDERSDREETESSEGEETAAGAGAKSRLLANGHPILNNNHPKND
Sequence of Ceramide synthase 6 (Q6ZMG9 whole entry): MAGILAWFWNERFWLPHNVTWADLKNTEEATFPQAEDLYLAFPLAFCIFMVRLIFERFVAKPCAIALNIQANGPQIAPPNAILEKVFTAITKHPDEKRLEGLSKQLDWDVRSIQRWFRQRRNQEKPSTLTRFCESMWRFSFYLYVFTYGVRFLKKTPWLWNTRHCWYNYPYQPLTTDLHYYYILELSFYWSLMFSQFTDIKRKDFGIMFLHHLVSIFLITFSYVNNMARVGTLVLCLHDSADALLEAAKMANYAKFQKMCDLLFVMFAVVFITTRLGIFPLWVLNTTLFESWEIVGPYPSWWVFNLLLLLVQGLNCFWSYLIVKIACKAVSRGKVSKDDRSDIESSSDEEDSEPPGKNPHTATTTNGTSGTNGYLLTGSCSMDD
Sequence of Acetylcholinesterase (P22303 whole entry): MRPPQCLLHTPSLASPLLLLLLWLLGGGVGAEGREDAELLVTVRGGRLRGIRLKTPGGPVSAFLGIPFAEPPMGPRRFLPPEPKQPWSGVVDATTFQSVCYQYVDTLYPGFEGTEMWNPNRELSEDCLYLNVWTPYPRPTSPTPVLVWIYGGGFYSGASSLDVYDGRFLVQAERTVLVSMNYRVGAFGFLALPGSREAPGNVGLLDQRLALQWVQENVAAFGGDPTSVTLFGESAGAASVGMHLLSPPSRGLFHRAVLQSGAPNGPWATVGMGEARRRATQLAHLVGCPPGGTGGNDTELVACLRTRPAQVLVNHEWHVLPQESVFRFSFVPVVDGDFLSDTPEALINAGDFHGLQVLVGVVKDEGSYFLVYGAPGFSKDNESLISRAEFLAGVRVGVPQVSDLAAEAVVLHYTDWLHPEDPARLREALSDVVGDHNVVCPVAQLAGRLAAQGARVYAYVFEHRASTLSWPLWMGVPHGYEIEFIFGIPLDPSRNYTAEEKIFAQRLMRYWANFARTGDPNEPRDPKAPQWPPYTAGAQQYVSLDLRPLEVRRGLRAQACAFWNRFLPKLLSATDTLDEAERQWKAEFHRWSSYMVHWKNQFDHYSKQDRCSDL
Sequence of Ceramide synthase 4 (Q9HA82 whole entry): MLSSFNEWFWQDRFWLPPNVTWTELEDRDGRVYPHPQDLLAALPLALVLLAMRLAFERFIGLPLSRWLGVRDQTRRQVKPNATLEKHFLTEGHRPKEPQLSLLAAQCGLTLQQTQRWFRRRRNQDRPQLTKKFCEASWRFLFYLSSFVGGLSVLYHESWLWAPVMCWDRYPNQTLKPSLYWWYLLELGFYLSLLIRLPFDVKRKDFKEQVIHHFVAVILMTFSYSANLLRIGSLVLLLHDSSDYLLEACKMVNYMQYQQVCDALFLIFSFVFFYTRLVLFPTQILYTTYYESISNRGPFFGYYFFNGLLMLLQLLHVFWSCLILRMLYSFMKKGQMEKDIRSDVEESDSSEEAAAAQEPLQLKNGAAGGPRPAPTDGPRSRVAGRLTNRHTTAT
Sequence of Sphingomyelinase C (Bacillus cereus) (P11889 whole entry): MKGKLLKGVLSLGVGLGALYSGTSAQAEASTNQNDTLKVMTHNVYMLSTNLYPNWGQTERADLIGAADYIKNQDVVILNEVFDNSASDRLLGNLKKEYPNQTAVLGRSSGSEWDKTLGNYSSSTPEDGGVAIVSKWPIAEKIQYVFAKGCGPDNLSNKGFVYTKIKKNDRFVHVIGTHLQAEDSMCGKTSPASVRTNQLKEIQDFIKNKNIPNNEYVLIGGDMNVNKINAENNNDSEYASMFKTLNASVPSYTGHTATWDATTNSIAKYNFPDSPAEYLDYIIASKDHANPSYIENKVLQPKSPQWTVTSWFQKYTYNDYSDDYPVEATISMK

`Nc1c(Br)cc(Br)cc1CN[C@H]1CC[C@H](O)CC1` [AMBROXOL] gave an IC50 [1] of 31 µM, an IC50 [2] greater than 1100 µM and an IC50 [3] of 8.1 µM.

In the case of `CCCCCCCC(=O)OC[C@H](COP(=O)(O)O[C@@H]1[C@H](O)[C@H](OP(=O)(O)O)[C@@H](O)[C@H](OP(=O)(O)O)[C@H]1O)OC(=O)CCCCCCC`, the IC50 [4] is reported as 0.93 µM, the inhibition [5] is reported as greater than 90% and the Ki [6] is reported as 0.53 µM.

`COc1cc(O)c(C(=O)O)c(-c2cc(O)c(O)cc2C)c1` [ALTENUSIN] showed a Ki [7] of 20 µM.

Compound `CN1c2ccc(OC(=O)Nc3ccncc3)cc2[C@]2(C)CCO[C@H]12` has an IC50 [8] of 7 µM.

Work on `O=C(/C=C/c1ccc(/C=C/C(=O)Nc2ccc(C3=NCCN3)cc2)cc1)Nc1ccc(C2=NCCN2)cc1` yielded an IC50 [9] of 1 µM.

`Oc1ccc(Nc2nc(-c3ccc(Cl)cc3)cs2)cc1` showed a Ki [10] of 0.3 µM.

`CCCCCCCCCCCCC/C=C/[C@@H](OCc1cccc(-c2ccccn2)n1)[C@H](CO)NC(=O)CCCCC` showed an inhibition [11] of 20%.

Work on `C[C@@](N)(CO)CCc1ccc(OCc2ccc(Cl)c(Cl)c2)cc1` yielded an IC50 [12] of 7 µM, an IC50 [13] of 7 µM and an IC50 [14] of 7 µM. The IC50 [15] was 7 µM and the IC50 [16] was 7 µM.

`CCCC[C@@H](C)[C@@H](OC(=O)C[C@@H](CC(=O)O)C(=O)O)[C@H](C[C@@H](C)C[C@H](O)CCCC[C@@H](O)C[C@H](O)[C@H](C)N)OC(=O)C[C@@H](CC(=O)O)C(=O)O` showed an IC50 [17] of 0.1 µM.

With `O=c1[nH]c(=S)[nH]c(-c2ccccc2)c1Cc1c(O)ccc2ccccc12` [CAMBINOL] the IC50 [18] was 5 µM.

Work on `CC1=C(/C=C/C(C)=C/C=C/C(C)=C/C(=O)Nc2ccc(O)cc2)C(C)(C)CCC1` [FENRETINIDE] yielded an IC50 [19] of 2.32 µM, a Ki [20] of 8.28 µM and an IC50 [21] of 0.1 µM.

`CCCCCCCCCCCCCC1=C([C@@H](O)[C@H](CO)NC(=O)CCCCCCC)C1` showed an IC50 [22] of 0.052 µM, a Ki [23] of 0.022 µM and a Ki [24] of 6 µM.

In the case of `CCCCCCCCCCCCCCCC(=O)N[C@H](CC(F)(F)P(=O)(O)O)[C@@H](O)c1ccccc1`, the IC50 [25] is reported as 3.3 µM and the Ki [26] is reported as 1.6 µM.

Compound `CCCCCCCCCCCCOS(=O)(=O)O[C@@H]1[C@H](O)[C@H](OP(=O)(O)O)[C@@H](O)[C@H](OP(=O)(O)O)[C@H]1O` has a Ki [27] of 0.42 µM and an IC50 [4] of 0.9 µM.

`CCCCCCCCCCCCCSC[C@@H](O)[C@H](CO)NC(=O)CCCCCCC` showed an IC50 [28] of 8.2 µM.

`CCCCCCCCc1ccc(CCC(N)(CO)CO)cc1` [FINGOLIMOD] showed an IC50 [29] of 6.4 µM and a Ki [30] of 2.15 µM.

`COc1cc([C@H]2Oc3cc(O)cc(O)c3C[C@H]2OC(=O)c2cc(O)c(O)c(O)c2)cc(O)c1O` showed an IC50 [31] of 1.7 µM.
